Source: patent US10976307B2, “Whole cell assays and methods” (Celcuity Inc., priority 2012, dated 2021)

How the values were obtained:
Format in all cases: cell-based, human
[1] = test system: Patient B1 breast cancer cells; test: CELx Anti-Proliferative test, impedance biosensor CReMS; conditions: continuous recording throughout the test period, untreated control cells
Experimental: (§1) A CELx Anti-Proliferative test was performed using cells from two breast cancer patients (Patients B1 and B2) and the drug Paclitaxel. The physiologic change of the Bland B2 cells during the test was measured with an impedance biosensor CReMS and the output from the CReMS is recorded in FIGS. 2A and 2B. The comparison of the CELx test results and the third party clinical reference is recorded in FIG. 2C.
(§2) The CReMS, microplate, reagents, and buffers used in Example 1 are the same as those employed in Example 2, except for the therapeutic agent tested. In Example 2, the therapeutic agent, paclitaxel, was tested. Paclitaxel was purchased from Selleck Chemicals (TX, USA).
(§3) Between 6,000-12,000 cells in each well were seeded onto the impedance microplate containing 120 uL settling media with serum. Forty microliters of the drug paclitaxel were added to one set each of the B1 and B2 cells; another control set of B1 and B2 cells received no drug. The CReMS recording of physiologic change was maintained continuously from when the cells were first seeded on the microplate through complete cellular response, which was between 48-72 hours. The test was performed at 37° C., 5% CO2 and at 75% relative humidity.

[2] = test system: Patient B2 breast cancer cells; test: as above; conditions: continuous recording
Experimental: as §1, §2, §3

[3] = test system: breast cancer patient cells; test: CELx Pathway Shutdown single drug test (Example 4), impedance biosensor CReMS; conditions: one patient breast cancer cell sample expected to be a responder
Experimental: Between 6,000-12,000 cells in each well were seeded onto the impedance microplate containing 120 uL standard media with serum. The solution was replaced with media containing no serum to synchronize the cells with respect to physiologic state and pathway stimulation. Twenty microliters of drugs were added to the no-serum media two hours in advance of pathway stimulation. Pathway stimulation was initiated using EC80 doses of receptor ligand (typically 6 nM in 20 uL). The CReMS recording of physiologic change was maintained continuously for several hours from buffer exchange through complete cellular response to the pathway stimulation. The pathway test was performed at 37° C., 5% CO2 and at a relative humidity 75%.
The physiologic change of the cells and drugs tested was measured with an impedance biosensor CReMS and the summary output from the CReMS is recorded in FIG. 4. The correlation between these CELx test results and the third party clinical reference is recorded in FIG. 7.
In those experiments involving anti-proliferative drugs (capecitabine, docetaxel, fluorouracil, paclitaxel, topotecan, cisplatin, and oxiliplatin), the procedures described in Example 2 were utilized. In those experiments involving a combination of drugs, the procedures described in Example 3 were utilized. The list of patient cells and the drug tested with the cells is characterized in FIG. 4.

[4] = test system: Patient C2 colon cancer cells; test: CELx Combination test, impedance biosensor CReMS; conditions: Patient C2 cells (printed Patient 2), single drug
Experimental: The physiologic change of the C1 and C2 cells during the test was measured with an impedance biosensor CReMS and the output from the CReMS is recorded in FIGS. 3A and 3B.
Between 6,000-12,000 cells in each well were seeded into the impedance microplate containing 120 uL settling media with serum. The solution was replaced with media containing no serum to synchronize the cells with respect to physiologic state. […] The CReMS recording of physiologic change was maintained continuously from when the cells were first seeded on the microplate through complete cellular response, which was between 48-72 hours. The test was performed at 37° C., 5% CO2 and at 75% relative humidity.

[5] = test system: Patient B1 HER2 overexpressing breast cancer cells; test: CELx Pathway Shutdown test, impedance biosensor CReMS, EGF stimulation; conditions: drug added two hours before EGF pathway stimulation, compared to stimulation with no drug
From the text: The change in impedance for a particular well is proportional to the number of cells and type of attachment the cells have with the impedance microplate. Changes in impedance indicate a response to perturbation of these small cell populations.
Prior to addition to the impedance microplate, the cells were removed from their growth container with versene, counted, and re-suspended in media without serum or other growth factors.
The solution was replaced with media containing no serum to synchronize the cells with respect to physiologic state and pathway stimulation. Twenty microliters of drugs were added to the no-serum media two hours in advance of pathway stimulation.

CC(=O)O[C@H]1C(=O)[C@@]2(C)[C@H]([C@H](OC(=O)c3ccccc3)[C@]3(O)C[C@H](OC(=O)[C@H](O)[C@@H](NC(=O)c4ccccc4)c4ccccc4)C(C)=C1C3(C)C)[C@]1(OC(C)=O)CO[C@@H]1C[C@@H]2O [Paclitaxel]
responsiveness: decrease in CReM output compared to control cells [1]: immediate and continuous responsiveness | time after which CReM output reverses (test cells begin proliferating, no longer responsive) [2]: roughly 24 hours | responsiveness: decrease in CReM output compared to control cells ([2]; untreated control cells): initial responsiveness

COc1cc2ncnc(Nc3ccc(F)c(Cl)c3)c2cc1OCCCN1CCOCC1 [gelfitinib, gefitinib]
response in the CReMS testing [3]: did not show a response

CCc1c2c(nc3ccc(OC(=O)N4CCC(N5CCCCC5)CC4)cc13)-c1cc3c(c(=O)n1C2)COC(=O)[C@]3(O)CC [irinotecan, Irinotecan]
responsiveness to each individual drug [4]: responsive

CS(=O)(=O)CCNCc1ccc(-c2ccc3ncnc(Nc4ccc(OCc5cccc(F)c5)c(Cl)c4)c3c2)o1 [lapatinib, Lapatinib]
change (decrease) of cell index of the test cells after drug added [5]: over 50%
